From PMC2913692 (The European journal of neuroscience, 2010)
Like-named read-outs stand apart in the source and are kept apart here. One block for each compound: values may come before it.

Key:
[1] = system: N-methyl-D-aspartate receptor (NMDAR), NR1 subunit coagonist site
[2] = system: N-methyl-D-aspartate receptor (NMDAR), NR1 subunit coagonist site; test: whole-cell voltage clamp; format: cell-based, Ambystoma tigrinum
[3] = system: N-methyl-D-aspartate receptor (NMDAR), NR1 subunit coagonist site; test: whole-cell voltage clamp of retinal ganglion cells; design: species or system Ambystoma tigrinum

Structure (SMILES): NCC(=O)O [glycine]
- EC50 [1]: 118 ± 48.1 µM

Structure (SMILES): O=C(O)c1cc(O)c2ccc(Cl)cc2n1 [7CKA, 7-chlorokynurenic acid]
- % of control at 25 μM [2]: 5.3 ± 1.0

- EC50 [3]: 3.48 ± 1.05 µM
Structure (SMILES): N[C@H](CO)C(=O)O [D-serine]
